Assay results from patent EP1769677B1, “METHOD OF IDENTIFYING THERAPEUTIC COMPOUNDS WHICH CAN BE USED FOR THE TREATMENT AND/OR PREVENTION OF INFECTIONS AND DISEASES CAUSED BY HUMAN HERPESVIRUSES” (Universidad Aut Noma de Madrid, priority 2004, dated 2005).

Experiments:
human herpesviruses = assay: Survival with acyclovir given ad libitum in the drink (vertical transmission model); type: in vivo, mice; conditions: acyclovir ad libitum in drinking water, high dose (as printed, final daily dose 1.50 mg), from the day of the vaginal plug
Procedure: Assuming that a mouse drinks about 3 ml a day, 2 working dilutions ([…] so that the final daily dose was 0.75 mg, and […] so that the final daily dose was 1.50 mg) were used.

[1] = test system: herpes simplex virus type 1 (HSV-1) of the KOS strain; assay: Neonate mortality after acyclovir treatment of HSV-1 infected mothers (vertical mother-progeny transmission model); type: in vivo, mice; conditions: neonates of HSV-1 infected mothers, 0.25 mg per dose three times a day, from five days before crossbreeding until birth
Procedure: (§1) All the animals included in the experimental process were 14-week old female mice of the C57Bl/6 lineage. Between two and three adult mice were used per analysis group and between 13 and 25 neonates, depending on the availability of animals. The experiments were performed strictly following the Guidance on the Operation of Animals (Scientific Procedures, Act 1986), supervised by personnel of the Animal house of the Centro de Biologia Molecular Severo Ochoa. All the animals went through a quarantine period and were treated with strict precautions against contamination during inoculation and dissection. The animals were intraperitoneally infected with a dose 10^6 pfu of herpes simplex virus type 1 (HSV-1) of the KOS strain (provided by el Dr. L. Carrasco, Centro de Biologia Molecular Severo Ochoa, Universidad Autónoma of Madrid). […] The first group of mice was not given any treatment. […] Therefore the antiviral concentration administered per dose and mouse was 0.25 mg (10 mg/kg per mouse, far from the toxicity limit of 80 mg/kg cited above), with a total daily dose of 0.75 mg/day.
After birth and sacrifice, the progeny survival rates and the mother and neonate viral loads were analyzed. The adult animals remained asymptomatic during the entire experimental process, suffering no mortality.

[2] = in vivo; cited from earlier work
[3] = test system: herpes simplex virus type 1 (HSV-1) of the KOS strain; assay: Viral load in organs of mothers and progeny by quantitative PCR after acyclovir treatment of infected mothers; type: in vivo, mice
Procedure: as §1, with “The experiments were performed strictly following the Guidance on the Operation of Animals (Scientific Procedures, Act 1986), supervised by personnel of the Animal house of the Centro de Biologia Molecular Severo Ochoa.” left out
The dissected organs in the adult animals were the following: blood, ovaries, adrenal gland, spinal cord, brain, cerebellum and trigeminal ganglia. The entire brain was separated into three rough regions: midbrain, ventricles and cerebral cortex. In the neonates, the dissected organs were blood, spinal cord and encephalon. DNA was extracted using conventional methods (NucleoSpin®, Cat. K3053-2, ClonTech, USA). The viral load of the different organs was analyzed by means of quantitative PCR. […] Primers specific for the sequence of the viral polymerase (pol) gene were used to detect the virus (SEQ. ID. NO: 3 and SEQ. ID. NO: 4) (120 bp amplicon). The PCR conditions were one cycle of 95°C for 10 minutes, followed by 45 cycles at 95°C for 30 seconds, 55°C (for β-actin) or 60°C (for viral polymerase) for 30 seconds, and a last cycle of 72°C for 40 seconds. The virus concentration range used for optimizing the quantitative PCR standard curve was expressed as plaque forming units (pfu). For calibrating the β-actin gene, nanograms were used as the unit of this endogenous gene. The identity of the amplified products was checked by analysis of the denaturation curves, by gel electrophoresis and restriction analysis.

[4] = oral acyclovir, daily dose 0.75 mg

Nc1nc2c(ncn2COCCO)c(=O)[nH]1 [acyclovir]
survival of the animals (human herpesviruses): higher | mortality ([1]; oral acyclovir to mothers, none of the 17 animals): no mortality was observed | mortality rate ([1]; subcutaneous acyclovir to mothers, 1 out of 25): 4.0% | toxicity limit [2]: 80 mg/kg | viral loads both in the mothers and in the progeny ([3]; acyclovir daily dose of 0.75 mg, both administration routes (oral and subcutaneous), Figure 7): significant reduction | viral levels in all the analyzed organs of the descendants ([3]; oral acyclovir to the mothers, daily dose 0.75 mg, blood, spinal cord, encephalon): almost complete elimination | virus levels in blood of the mothers [3, 4]: virtually undetectable | virus levels in the trigeminal ganglia of the mothers [3, 4]: virtually undetectable | levels of the virus in the progeny's CNS ([3]; subcutaneous acyclovir to mothers, daily dose 0.75 mg, Figure 7B): considerably lower levels of the virus | levels of the virus in all the analyzed organs of the mother ([3]; subcutaneous acyclovir, daily dose 0.75 mg, Figure 7A): considerably lower levels of the virus
